Source: patent EP4721758A1, “NOVEL MEDICINE FOR TREATING OSTEOSARCOMA” (Japanese Foundation For Cancer Research, priority 2023, dated 2024)

Key:
BCL-2 = BCL-2 (Homo sapiens, UniProt P10415); conditions: cited from earlier work
BCL-xL = BCL-xL (Homo sapiens, UniProt Q07817); conditions: cited from earlier work
osteosarcoma cells [1] = experiment: Inhibitor library drug screening, cell viability (CellTiter-Glo); format: cell-based, human; conditions: nine osteosarcoma cell lines and two PDC, 72 hours, heatmap Fig. 1A
Experimental: The nine human osteosarcoma cell lines (MG-63 cells, NY cells, HOS cells, HuO9 cells, HuO-3N1 cells, SJSA-1 cells, NOS-1 cells, NOS-10 cells, and G-292 clone A141B1 (G-292) cells) were purchased from the American Type Culture Collection, the RIKEN BioResource Research Center, or the Japanese Collection of Research Bioresources Cell Bank (JCRC) and used at lower passage numbers.
Specifically, • MG-63 cells, NY cells, and HOS cells were cultured in 96-well plates using MEM (Wako) comprising 10% FBS (CORNING), 1% non-essential amino acid solution (Wako), and 100 µ(micro)g/mL kanamycin (MEIJI), • HuO9 cells, HuO-3N1 cells, SJSA-1 cells, NOS-1 cells, and NOS-10 cells were cultured in 96-well plates using RPMI-1640 medium (Wako) comprising 10% FBS and 100 µ(micro)g/mL kanamycin. • G-292 clone A141B1 (G-292) cells were cultured in 96-well plate using McCoy's 5a medium comprising 10% FBS, • Sa-xeno-147 and Sa-xeno-184 cell lines were developed from patient-derived xenograft tumors and were cultured in collagen-coated dishes with RPMI 1640/Ham's F12 (1:1) medium comprising 15% FBS, 20 mM HEPES, and antibiotic-antimycotic solution (Sigma-Aldrich). Cells were cultured at 37°C and 5% CO2.
Cells were seeded in triplicate in 96-well plates (Greiner) or type I collagen-coated plates (IWAKI) at a density of 2000 cells/well and cultured for at least 24 h. After 72 hours of incubation with any of the 96 compounds of the library of the inhibitors, cells were incubated with CellTiter-Glo reagent (Promega) for 2 minutes on a Titramax 100 plate shaker (Heidolph), and after 10 minutes of equilibration, cell viability assays of each osteosarcoma cell were performed by measuring luminescence using a Tristar LB941 multimode microplate reader (Berthold Technologies). The cell viability was calculated as a ratio of the DMSO control to evaluate their effects on osteosarcoma cell proliferation (n=2).

NOS-10 cells [2] = experiment: Cell viability (CellTiter-Glo); format: cell-based, human; conditions: for IC50 values: in the presence of 40 nM obatoclax, Fig. 4-4; for IC50 value / growth inhibitory effect: IGF-1R inhibitor in combination with Mcl-1 inhibitors such as obatoclax, AZD5991, and MIK665, Fig. 5-1
Experimental: In this example, the drug sensitivity of MIK665, an Mcl-1 inhibitor, was evaluated in NOS-10 cells. Various concentrations (i.e., 0, 1, 3, 10, 30, 100, 300, 1000, 3000, 10000, 30000 nM) of MIK665 (TargetMol) were administered, and cell viability was measured using CellTiter-Glo assay reagent 72 hours after drug treatment. As a control, osteosarcoma cells MG-63 cells, without amplification of the copy number of MCL1, were used. Data are shown as MG-63 mean ± SD (n = 3).
(§1) Specifically, four types of osteosarcoma cells (i.e., NOS-10 cells, Sa-xeno-147 cells, G-292 cells, and Sa-xeno-184 cells) were treated with six types of BH3 mimetics (i.e., obatoclax, navitoclax, venetoclax, A-1331852, AZD5991, and MIK665), and the cell viability of the osteosarcoma cells was measured.
Meanwhile, the combined effect of AZD5991 and 3 µ(micro)M Navitoclax on cell viability of NOS-10 cells was examined. Cell viability was measured using CellTiter-Glo assay reagent 72 hours after drug treatment. Data are shown as mean ± SD (n = 3).
(§2) Specifically, the present inventors investigated the combined effects of 40 nM obatoclax with DOX (Fig. 4-4(E), Fig. 4-5(A)), with CDDP (Fig. 4-4(F), Fig. 4-5(B)), and with MTX (Fig. 4-4(G), Fig. 4-5(C)) on cell viability in NOS-10 cells and Sa-xeno-147 cells. Cell viability was measured for each cell 72 hours after each drug treatment using CellTiter-Glo assay reagent. All data are shown as mean ± SD (n = 3). IC50 values were calculated and the data were graphed using GraphPad Prism.
To identify suitable combination partners of Mcl-1 inhibitors such as obatoclax for osteosarcoma treatment, further drug screening was performed using an in-house library of inhibitors in the presence of obatoclax in osteosarcoma cells. Specifically, the effect of combination of 35 nM obatoclax with an inhibitor out of 94 molecular targeted drugs in the library on cell viability of NOS-10 cells was examined. Cell viability was measured using CellTiter-Glo assay reagent 72 hours after the cells were treated with each combination of drugs. All data are shown as mean ± SD (n = 3). GraphPad Prism was used to calculate IC50 values and graph the data.

Sa-xeno-147 cells = experiment: Cell viability (CellTiter-Glo); format: cell-based, human; conditions: for IC50 values: in the presence of 40 nM obatoclax, 72 hours, Fig. 4-5; for cell viability: BH3 mimetic drug sensitivity, Fig. 4-1
Experimental: as §1, §2

Sa-xeno-184 cells = experiment: Cell viability, BH3 mimetic drug sensitivity; format: cell-based, human; conditions: cells with MCL1 amplification, Fig. 4-1
Experimental: as §1

Mcl-1 [3] = biological target: T1, Mcl-1 (Homo sapiens, UniProt Q07820); conditions: cited from earlier work
osteosarcoma cell lines = experiment: IC50 of obatoclax, cell viability (CellTiter-Glo); format: cell-based; conditions: Homo sapiens; 11 osteosarcoma cell lines; 72 hours; compared with Cmax; Fig. 4-3
Experimental: In this example, G-292 cells, NY cells, NOS-1 cells, NOS-10 cells, HuO9 cells, SJSA-1 cells, MG-63 cells, HuO-3N1 cells, HOS cells, Sa-xeno-147 cells, and Sa-xeno-184 cells were used as osteosarcoma cell lines, and LC-2/ad cells, H2228 cells, H226 cells, H3122 cells, and A549 cells were used as lung adenocarcinoma cell lines.
After 72 hours from treatment with obatoclax, the cell viability of each cell was measured using the CellTiter-Glo Assay reagent. The IC50 value was calculated using Prism software.

[4] = serum; read-out: maximum concentration of obatoclax in serum (Cmax); cited from earlier work
NOS-10 cells [5] = experiment: Mouse xenograft model, tumor volume; format: in vivo, SCID beige mice; conditions: obatoclax 5 mg/kg, OSI906 25 mg/kg, orally three times a week; MCL1-amplified xenograft; Fig. 6-2 (B)
Experimental: Using obatoclax or AZD5991 as an Mcl-1 inhibitor, the present inventors used mouse xenograft models of osteosarcoma with MCL1-amplified osteosarcoma (NOS-10 cells) and without MCL1-amplified osteosarcoma (Sa-xeno-147 cells) to determine the efficacy of the combination of obatoclax or AZD5991 with OSI906. To prevent side effects such as weight loss, the drugs were administered three times a week at relatively low concentrations (experimental schemes are shown in Figures 5A and 5D). The changes in tumor volume of NOS-10 cells and Sa-xeno-147 cells by treatment of drugs was examined as follows. NOS-10 cells or Sa-xeno-147 cells were subcutaneously inoculated into immunodeficient SCID beige mice (CB17.Cg-PrkdcscidLystbg-J/CrlCrlj, Charles River Laboratories, Inc.) (5-6×10^6 cells/mouse or 1×10^6 cells/mouse) and orally treated three times a week with vehicle (30% PEG400, 0.5% Tween80, 5% propylene glycol in water), with obatoclax (5 mg/kg), with OSI906 (25 mg/kg), or with obatoclax + OSI906 (5 mg/kg and 25 mg/kg, respectively). […] All data are shown as mean ± SD (n = 4, n = 5, or n = 6). *p < 0.05 and **p < 0.01 are determined using the Mann-Whitney U test.

Mcl-1 [6] = biological target: T1, Mcl-1; conditions: cited from earlier work; remark: listed apart in the source
osteosarcoma cells [7] = experiment: Cell viability, combined use of Mcl-1 inhibitor and Bcl-xL inhibitor; format: cell-based
Source text: In this example, AZD5991 or MIK665 was used as an Mcl-1 inhibitor, and A-1331852 was used as a Bcl-xL inhibitor.

G-292 cells = experiment: Cell viability, BH3 mimetic drug sensitivity; format: cell-based, human; conditions: cells with BCL2L1 amplification, Fig. 4-1
Experimental: as §1

topoisomerase = conditions: cited from earlier work
[8] = BH3 mimetic drug sensitivity, cells with MCL1 amplification, Fig. 4-1

BCL-xL, sequence (Q07817 whole entry): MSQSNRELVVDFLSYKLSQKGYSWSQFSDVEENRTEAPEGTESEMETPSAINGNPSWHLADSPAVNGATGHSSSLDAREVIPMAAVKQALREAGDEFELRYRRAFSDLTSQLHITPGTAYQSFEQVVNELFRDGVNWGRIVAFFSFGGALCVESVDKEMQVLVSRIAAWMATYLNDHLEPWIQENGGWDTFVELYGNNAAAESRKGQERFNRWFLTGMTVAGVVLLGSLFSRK
BCL-2, sequence (P10415 whole entry): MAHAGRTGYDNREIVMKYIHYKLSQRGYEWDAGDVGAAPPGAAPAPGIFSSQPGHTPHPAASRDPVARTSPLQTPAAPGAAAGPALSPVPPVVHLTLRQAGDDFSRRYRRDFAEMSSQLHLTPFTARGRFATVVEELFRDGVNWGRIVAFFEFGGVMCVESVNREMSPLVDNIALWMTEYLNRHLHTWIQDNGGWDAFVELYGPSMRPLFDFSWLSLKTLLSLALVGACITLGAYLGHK
T1 sequence (Q07820 whole entry): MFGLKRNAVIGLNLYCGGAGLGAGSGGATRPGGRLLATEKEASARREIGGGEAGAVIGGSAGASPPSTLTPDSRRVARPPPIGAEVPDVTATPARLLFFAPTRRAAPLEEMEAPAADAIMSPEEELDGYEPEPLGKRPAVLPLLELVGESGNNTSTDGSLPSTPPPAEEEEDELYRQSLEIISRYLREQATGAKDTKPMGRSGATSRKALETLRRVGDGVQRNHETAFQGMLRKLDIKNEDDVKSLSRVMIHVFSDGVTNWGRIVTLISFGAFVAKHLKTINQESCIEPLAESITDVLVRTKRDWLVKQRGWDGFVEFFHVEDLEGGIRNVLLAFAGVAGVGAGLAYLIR

In the case of `Cc1cc(OCCCc2c3n(c4c(-c5c(C)nn(C)c5C)c(Cl)ccc24)[C@H](C)CN(c2cn(C)c4ccc(C(=O)O)cc24)C3=O)cc(C)c1Cl` [VU661013], the “inhibition of BCL-2” value (BCL-2) is given as “does not significantly inhibit” and the “inhibition of BCL-xL” value (BCL-xL) is given as “does not significantly inhibit”.

With `CC(C)C[C@H](NC(=O)[C@H](Cc1ccccc1)NC(=O)c1cnccn1)B(O)O` [bortezomib] the “osteosarcoma cell proliferation (cell viability)” value (“osteosarcoma cell proliferation” for short) (osteosarcoma cells [1]) was “extensive inhibition of osteosarcoma cell proliferation”.

For `Cc1c(-c2c(-c3ccc(F)o3)sc3ncnc(O[C@H](Cc4ccccc4OCc4ccnn4CC(F)(F)F)C(=O)O)c23)ccc(OCCN2CCN(C)CC2)c1Cl` [S63845], the “binding to BCL-2” value (BCL-2) is listed as “not to bind” and the “binding to BCL-XL” value (BCL-xL) is listed as “not to bind”.

For `[NH2][Pt]([NH2])([Cl])[Cl]` [CDDP, cisplatin], the IC50 values (NOS-10 cells [2]; 72 hours) was “not decreased” and the IC50 values (Sa-xeno-147 cells) was “not decreased”.

For MIK665, the cell viability (NOS-10 cells [2]; [8]) was “reduce cell viability at relatively low concentrations”, the cell viability (NOS-10 cells [2]; low concentrations of MIK665 (range 0-30000 nM), 72 hours, compared to MG-63 cells without MCL1 amplification, Fig. 2) was “reduced cell viability” and the cell viability (Sa-xeno-184 cells) was “reduce cell viability at relatively low concentrations”. For the same compound, the cell viability (Sa-xeno-147 cells) was “moderate inhibitory effects”.

For `CC(C)C[C@H](NC(=O)[C@H](CCc1ccccc1)NC(=O)CN1CCOCC1)C(=O)N[C@@H](Cc1ccccc1)C(=O)N[C@@H](CC(C)C)C(=O)[C@@]1(C)CO1` [carfilzomib], the “osteosarcoma cell proliferation” value (osteosarcoma cells [1]) was “extensive inhibition of osteosarcoma cell proliferation”.

In the case of `CN(Cc1cnc2nc(N)nc(N)c2n1)c1ccc(C(=O)N[C@@H](CCC(=O)O)C(=O)O)cc1` [MTX, methotrexate], the IC50 values (NOS-10 cells [2]; 72 hours) is reported as “not decreased” and the IC50 values (Sa-xeno-147 cells) is reported as “not decreased”.

In the case of `COc1cccc2c1C(=O)c1c(O)c3c(c(O)c1C2=O)C[C@@](O)(C(=O)CO)C[C@@H]3O[C@H]1C[C@H](N)[C@H](O)[C@H](C)O1` [DOX, Doxorubicin], the IC50 values (NOS-10 cells [2]; 72 hours) is reported as “not decreased” and the IC50 values (Sa-xeno-147 cells) is reported as “not decreased”.

In the case of `Cc1nn(C)c(COc2ccc(N3CCN(S(=O)(=O)N(C)C)CC3)cc2)c1-c1cccc2c(CCCOc3cccc4ccccc34)c(C(=O)O)n(CCN3CCOCC3)c12` [A-1210477], the “selectivity than other Bcl-2 family members” value (Mcl-1 [3]) is given as ≥ 100 fold.

For `COC1=CC(c2cc3ccccc3[nH]2)=N/C1=C\c1[nH]c(C)cc1C` [obatoclax], the IC50 (osteosarcoma cell lines) is listed as < 176 nM and the Cmax [4] is listed as 176 nM.

In the case of `Cc1c2c(nn1C)CSCc1cc(n(C)n1)CSc1cc(c3ccccc3c1)OCCCc1c(C(=O)O)n(C)c3c-2c(Cl)ccc13` [AZD5991], the cell viability (NOS-10 cells [2]; AZD5991 combined with 3 µM Navitoclax, 72 hours, Fig. 4-2) is reported as “increased the inhibitory effect on cell viability”, the cell viability (NOS-10 cells [2]; [8]) is reported as “reduce cell viability at relatively low concentrations” and the cell viability (Sa-xeno-184 cells) is reported as “reduce cell viability at relatively low concentrations”. The cell viability (Sa-xeno-147 cells) was “moderate inhibitory effects”.

For `COc1cc(N2CCC(N)CC2)ccc1Nc1ncc(Cl)c(-c2c[nH]c3ccccc23)n1` [AZD3463], the IC50 value (NOS-10 cells [2]; 72 hours) was “significantly reduced” and the growth inhibitory effect (NOS-10 cells [2]; 72 hours) was “enhanced”.

With `C[C@]1(O)C[C@@H](c2nc(-c3ccc4ccc(-c5ccccc5)nc4c3)c3c(N)nccn32)C1` [OSI906] the IC50 value (NOS-10 cells [2]; 72 hours) was “significantly reduced”, the growth inhibitory effect (NOS-10 cells [2]; 72 hours) was “enhanced” and the tumor growth (NOS-10 cells [5]) was “little effect on tumor growth”.

In the case of `O=C(c1ccccc1O)c1[nH]c(Cl)c(Cl)c1-n1c(C(=O)c2ccccc2O)cc(Cl)c1Cl` [Marinopyrrole A], the “binding to Mcl-1” value (Mcl-1 [6]) is listed as “bind to Mcl-1” and the “binding to BCL-XL” value (BCL-xL) is listed as “not to Bcl-XL”.

In the case of `Cc1c(-c2ccc(N3CCc4cccc(C(=O)Nc5nc6ccccc6s5)c4C3)nc2C(=O)O)cnn1CC12CC3CC(CC(C3)C1)C2` [A-1331852], the cell viability (osteosarcoma cells [7]; A-1331852 alone, Fig. 3-5, Fig. 3-6) is reported as “almost no effect on reduction of cell viability”, the cell viability (osteosarcoma cells [7]; A-1331852 in combination with AZD5991, Fig. 3-5) is reported as “strong effect on reduction of cell viability” and the cell viability (osteosarcoma cells [7]; A-1331852 in combination with MIK665, Fig. 3-6) is reported as “strong effect on reduction of cell viability”. The cell viability (G-292 cells) was “most effective in reducing cell viability”.

For `CCc1c2c(nc3ccc(O)cc13)-c1cc3c(c(=O)n1C2)COC(=O)[C@]3(O)CC` [SN-38], the “osteosarcoma cell proliferation” value (osteosarcoma cells [1]) is listed as “extensive inhibition of osteosarcoma cell proliferation” and the “activity relative to irinotecan” value (topoisomerase) is listed as 1000 times.
